# Read-outs that look alike come from different tables or passages of the source.
# What was measured:
# Septoria nodorum [1] = experiment: Wheat Glume Blotch Foliar Assay, protectant (WGB Prot); type: in vivo; conditions: 10 ppm, application two days pre-inoculation
# Method: A) Host Propagation--Winter wheat plants, cv. Caldwell, are grown in 5.7 cm^2 pots, three per pot, and maintained in a growth chamber set at 20° C., 80% RH with a 12 hour photoperiod.
# B) Compound Preparation--A 1.0% stock solution of each of the compounds of the present invention is first prepared utilizing an appropriate solvent such as acetone, water or DMSO. This stock is then used to prepare the final spray solution which contains the compound at the desired dosage, eg 100 ppm and 20 ppm, acetone at 20% v/v, Tween®20 at .05% w/v, and water at about 80%. Commercial standard used is tebuconazole at equivalent rates.
# C) Compound Application, Seedlings are sprayed at the two-leaf stage (GS 12) using a DeVilbiss Model 152 hand operated sprayer set at 15-20 psi. Six ml of the test solution per treatment are applied to three pots. In the protectant assay (EXAMPLE 8), the compound application is made two days pre-inoculation. In the curative assay (EXAMPLE 9), the compound is applied during a brief interruption of the disease incubation period two days post-inoculation.
# D) Pathogen Production/Inoculation--The wheat glume blotch fungus, Septoria nodorum, is maintained in the pycnidial state on yeast malt agar (YMA) and transferred weekly by streaking a suspension of conidia obtained from a ten to twelve day old sporulating culture onto fresh YMA plates. The plates are incubated at 20° C. with a 12 hour photoperiod.
# Test inoculum is prepared by flooding seven day old culture plates with deionized water amended with Tween®20 (0.1% v/v) and gently scraping the pycnidia to release the extruding masses of conidia. The resulting spore suspension is filtered through two layers of cheese cloth and adjusted to 4×10^6 spores/ml utilizing the Tween®20 solution.
# Forty-eight hours after the compound application and prior to inoculation, the test plants are preconditioned for at least one hour in a dark growth chamber set at 20° C. and 100% RH. After the preconditioning period is over, the conidial suspension is applied to run-off using a DiVilbiss hand operated sprayer. The plants are then returned to the preconditioning chamber and incubated at the same settings for 96 hours. Light is supplied to the plants during the last twelve hours of incubation. At the end of the 96 hour period, the plants are returned to the environmental conditions under which they were grown.
# E) Test Evaluation--Eight to ten days after removal from the high humidity chamber, or twelve to fourteen days after inoculation, treatments are evaluated by visually estimating the percentage of the leaf area (on the first leaf) covered with lesions. Three ratings are made on each pot which constitutes a replicate. Each replicate then receives a numerical mean by averaging the three values. Percent disease, as well as percent control values are calculated. The percent control values obtained from these assays for the compounds of the present invention are as set out in the Table below.
# [2] = system: Erysiphe graminis f. sp. tritici; experiment: Wheat Powdery Mildew Foliar Assay (WPM Prot); type: in vivo
# Method: A) Pathogen/Inoculum Production--Leaf material infected with the wheat powdery mildew fungus, Erysiphe graminis f. sp. tritici, is maintained continuously on wheat seedlings, cv. Caldewell.
# (B) Host Propagation, (C) Compound Preparation and (D) Compound Application follow as per Example 1.
# (E) Inoculation/Incubation--Inoculation of the test plants takes place 24 hours after compound application. Inoculation is accomplished by gently shaking plants previously infected with the Erysiphe graminis f. sp. tritici fungus over the test plants. This process liberates a cloud of spores which effectively and uniformly fall onto the test plants. After inoculation the plants are returned to the environmental conditions under which they were grown.
# (F) Evaluation and (G) Data follow as per Example 1. The percent protection values for the compounds of the present invention are as set out in the Table below.
# [3] = system: Botrytis cinerea Mitochondria; conditions: 1 μM concentration; cited from earlier work
# Succinate Dehydrogenase = experiment: Enzyme Inhibition I-50 (WGB): Succinate Dehydrogenase Assay using Septoria nodorum mitochondria; type: biochemical
# Method: Succinate Dehydrogenase Assay using Septoria nodorum mitochondria--Septorianodorum mycelia are prepared from spores via shake culture for 40-48 hours in 3% malt extract at room temperature. The mycelia are harvested by centrifugation and the pellets obtained are stored in the -80° C. freezer until use.
# Mitochondria are isolated by a method adapted from White (Biochem. Biophys. Res. Commun. 44 (1971) 1212-19). Fifteen to twenty grams of frozen mycelia are resuspended in a 250 mL medium containing 0.25M sucrose, 5 mM tetrasodium ethylenediamine tetraacetic acid (Na4 EDTA), pH 7.0 containing 1.5 g/liter bovine serum albumin (BSA) and placed in a Bead Beater chamber (BioSpec Products, Bartlesville, Okla.). Zirconium oxide beads (0.5 mm) are added to finish filling the chamber. Four 30s beats separated by 2 rain temperature equilibration periods on ice are used to break the mycelia. The homogenate is centrifuged for 20 min at 3000×g and 4° C. to remove debris. The supernatant is recentrifuged at 20,000×g for 20 min at 4° C. The resulting pellet is resuspended in BSA-free sucrose/EDTA medium (40 mL) using a glass tissue homogenizer and teflon pestle and recentrifuged at 27,000×g for 15 min at 4° C. The pellet is resuspended in BSA-free sucrose/EDTA medium (~3 mL) and used for SDH assays.
# The enzyme activity is measured at […] in a solution containing 50 mM potassium phosphate, pH7.2; 1 mM potassium cyanide; 45 μM 2,6-dichlorophenol indophenol (DCPIP) and 17 mM disodium succinate in a final volume of 1 mL with a Perkin-Elmer Lambda 7 ultraviolet-visible spectrophotometer. The test compounds are added as acetone solutions (final concentration of acetone less than or equal to 1%(v/v)). The mitochondrial preparations are used to initiate the reaction. All rates are corrected for succinate-independent dye reduction. Semilog plots of percentage inhibition versus test compound concentration are used to determine inhibition expressed as I50 (μM) which is the concentration required to inhabit the rate of DCPIP reduction by 50%. The commercial fungicide carboxin is used as a standard throughout [I50 (μM)=5.0±2.2; n=52].
# Septoria nodorum [4] = experiment: Wheat Glume Blotch (WGB) In Vitro; type: cell-based; parameters: key: 0: no inhibition of mycelial growth; 1: slight inhibition of mycelial growth; 2: moderate inhibition of mycelial growth; 3: strong inhibition of mycelial growth; conditions: 4-6 days at 25° C.
# Method: A) Pathogen/Inoculum Production--The wheat glume blotch fungus, Septoria nodorum, is cultured on yeast/malt agar at 22° C. and 12 hours fluorescent light. Several sterile loops full of mature pycnidia produced on a 7 day old culture plates are added to 30 mls of 1/4 strength potato dextrose broth. After 15 minutes the suspension is stirred, and adjusted to a concentration of 3×10^5 spores/mi.
# B) Compound Preparation and Test Execution--200 μl of 1/4 strength potato dextrose broth is placed in each well of a 96 well microtiter plate. […] The commercial standard used is flusilazole, at equivalent rates.
# C) Inoculation/Incubation--50 μl of a 3×10^5 spores/ml suspension obtained using the method above is added to each well. The 96-well plate is incubated for 4-6 days at 25° C., 12 hours fluorescent light.
# (§1) D) Evaluation--After incubation, each well is visually assessed for growth inhibition on the following 0-3 scale:
# (§2) 0=no inhibition of mycelial growth
# (§3) 1=slight inhibition of mycelial growth
# (§4) 2=moderate inhibition of mycelial growth
# (§5) 3=strong inhibition of mycelial growth
# [5] = system: Pseudocercosporella herpotrichoides var. tritici; experiment: Wheat True Eyespot In Vitro Assay (WES In Vitro); type: cell-based; parameters: key: 0: no inhibition of mycelial growth; 1: slight inhibition of mycelial growth; 2: moderate inhibition of mycelial growth; 3: strong inhibition of mycelial growth; conditions: 3 days at 19° C.
# Method: A) Pathogen/Inoculum Production--A mycelial transfer of Pseudocercosporella herpotrichoides var. tritici is placed onto potato dextrose agar plates and allowed to grow for 40 days at 20 ° C., without light. Five agar discs are taken from the actively growing culture and are placed equidistant, mycelial side down, onto a water agar plate, and incubated at 10 ° C. with 10 hours of fluorescent light per day. After 5 days of incubation, sporulation on the transferred discs begins, and plates are flooded with 3-5 mls sterile deionized water. One-half ml aliquots are taken from the resulting spore suspension and placed on new water agar plates. Spores are spread across plates using a bent glass rod and incubated at 10 ° C. with 10 hour fluorescent light periods per day. In 5-10 days, a lawn of spores is produced and can be "harvested".
# B) Compound Preparation and Test Execution--200 μl of 1/4 strength potato dextrose broth is placed in each well of a 96 well microtiter plate. […] The commercial standard used is prochloraz at equivalent rates.
# C) Inoculation/Incubation--50 μl of a 1×10^6 spores/ml suspension harvested using the method above is added to each well. The 96 well plates are incubated for 3 days at 19° C. in the dark.
# as §1, §2, §3, §4, §5
compound,measurement,setting,value
Cn1cc(C(=O)Nc2ccccc2C2CCC(C(F)(F)F)CC2)c(C(F)F)n1 (stereo not drawn) [Number 8],WGB Prot percent control,Septoria nodorum [1],85%
same,WPM Prot percent disease control,[2]; 10 ppm foliar protectant,91%
"CC1=C(C(=O)Nc2ccccc2)SCCO1 [carboxin, reference compound]",respiratory inhibition,[3],68%
same,IC50,"Succinate Dehydrogenase; standard throughout, n=52, read-out: I50",5 ± 2.2 µM
"CCO[C@H]1CC[C@H](c2ccccc2NC(=O)c2cn(C)nc2C(F)F)CC1 [Number 7, 1H-pyrazole-4-carboxamide, 3-(difluoromethyl)-N-[2-(4-ethoxycyclohexyl)phenyl]-1-methyl-,trans-]",WGB In Vitro growth inhibition 0-3 scale,Septoria nodorum [4]; 0.1 ppm,0
same,WGB In Vitro growth inhibition 0-3 scale,Septoria nodorum [4]; 0.5 ppm,0
same,WGB In Vitro growth inhibition 0-3 scale,Septoria nodorum [4]; 5.0 ppm,1
same,WES In vitro growth inhibition 0-3 scale,[5]; 0.1 ppm,0
same,WES In vitro growth inhibition 0-3 scale,[5]; 0.5 ppm,0
same,WES In vitro growth inhibition 0-3 scale,[5]; 5.0 ppm,1
same,IC50,"Succinate Dehydrogenase; DCPIP reduction, read-out: WGB enzyme I-50",0.17 µM
same,WPM Prot percent disease control,[2]; 500 ppm foliar protectant,96%
